Bridge positions count the residues as written; N and C are the ends. Ends that are not written are not given here. I, II: the chains in the order shown.
What was measured:
IGF1R gene expression = IGF1R gene expression (RT-qPCR) in R+ cells after repeated stimulation with synthetic ligand; format: cell-based, human; conditions: 100 nM ligand every 3 h over 24 h, normalised to β-actin, compared to basal, n = 3
Experimental: To assess the potential impact of external VILP exposure on IGF1R gene expression, we employed R^+ cells, seeding 30 × 10^4 cells per well. Following a 24-hour incubation period, cells were washed twice with PBS and were subsequently serum-starved for 4 h before sequential stimulation with various ligands (scMFRV-VILP, dcMFRV-VILP, and IGF-1). The cells were stimulated with 100 nM of each ligand every 3 h over a 24-hour period. Post the final stimulation, the cells were snap-frozen and stored at −80 °C.
Subsequently, the lysates were transferred to microtubes and chloroform in ratio 5:1 (Tri Reagent: chloroform) was added. The mixture was vortexed for 15s, incubated at RT for 5 min and centrifuged for 15 min at 12000g, 4 °C. The upper aqueus phase was transferred to new tubes, 100 % ethanol was added to give a 1:1 volumetric ratio and subsequently the Direct-zol RNA Miniprep Kit (Zymo Research) was used according to the manufacturer's instructions. cDNA synthesis was performed using Maxima™ H Minus cDNA Syntheis Master Mix (ThermoFisher Scientific) according to manufacturer's instructions. The qPCR was performed using Power SYBR® Green PCR Master Mix (Applied Biosystems) according to manufacturer's instructions on QuantStudio 3 (Applied Biosystems). Statistical analysis was performed using ordinary one-way ANOVA followed by Tukey's multiple comparison test.

R+ cells = test: BrdU proliferation assay of transfected R+ cells; format: cell-based, mouse; conditions: 10 nM IGF-1 for 24 h; BrdU for last 6 h
Experimental: R^+ cells (described in 2.4) were seeded into 96-well plates so that they reached ∼50 % confluency after overnight incubation. […] Three hours post transfection, Opti-MEM medium was exchanged for regular culture medium. 24 h post transfection, cells were washed once with PBS and starved in serum free culture medium. After 24 h of starvation, cells were stimulated with IGF-1 (diluted in serum free medium) to reach final concentration of 10 nM IGF-1 per well for another 24 h period (serum free medium only was added to the non-stimulated wells). To determine the rate of proliferation in each well, BrdU Cell Proliferation Assay (Sigma–Aldrich, #QIA58) was used. Manufacturer's instructions were followed, with the BrdU probe being added for the last 6 h of the 24 h stimulation with IGF-1. Absorbance at dual wavelengths of 450–540 nm was measured using a spectrophotometric plate reader. The experiment was repeated at least three times and for each biological replicate, results were expressed as relative change compared to non-stimulated cells transfected with empty vector. Statistical analysis was performed using paired two-tailed Student's t-test.

C57BL/6 J mice = test: Insulin tolerance test; format: in vivo, mouse
Experimental: All animal studies presented in this study complied with the regulations and ethics guidelines of the NIH and were approved by the Boston College Institutional Animal Care and Use Committee. Insulin tolerance testing was performed on 12 to 17-week-old male C57BL/6 J mice (Jackson Laboratory). Mice were grouped according to their weight before experiment. After 6-hour starvation, mice were injected i.p. with insulin (Humulin, 6 nmol/kg, corresponds to 1.0 U/kg, 1x) (Eli Lilly), scMFRV-VILP (6 nmol/kg, 1x and 60 nmol/kg, 10x), dcMFRV-VILP (60 nmol/kg, 10x), dcLCDV-Sa-VILP (0.3 μmol/kg, 50x), and saline as a control (n = 4–11 per condition). Tail-vein blood glucose was measured until 3 h post-injection using an Infinity glucometer (US Diagnostic Inc.). Statistical analysis was done using Mixed effects analysis - Dunnett's multiple comparisons test.

human IR-B = target: T1, human IR-B (Homo sapiens, UniProt P06213); test: Whole-cell binding competition assay with 125I-insulin on R-/IR-B fibroblasts; conditions: competition with 125I-insulin, R-/IR-B cells; mean ± S.D. (n), n ≥ 3; measurement series #; SD
T1 construct: expressed in transfected cells; host or cells: murine embryonic fibroblasts from IGF1R knockout mice, stably transfected with IR-B (R-/IR-B cells)
Experimental: (§1) For receptor binding studies, human IM-9 lymphoblasts, that express IR-A exclusively, and R^−/IR-B and R^+ murine embryonic fibroblasts were used for a whole-cell receptor-binding assay. Receptor binding assays on IR-A were perfomed accoding to Morcavallo et al. [24]and binding assays on IR-B and IGF1R were performed according to Kosinova et al.. […] Human ^125I-insulin was prepared as described by Asai et al. and human ^125I-IGF-1 was prepared as described in Kertisova et al..

human IR-A [1] = target: T2, human IR-A (Homo sapiens, UniProt P06213); test: cell-based; design: human IM-9 lymphoblasts, that express IR-A exclusively
Experimental: (§2) Insulin or IGF-1 receptor phosphorylation was measured as described in [13]. Briefly, HEK293 cells overexpressing human IR-A, IR-B, or IGF-1R were plated in 96-well tissue culture plates and cultured for 16–20 h at 37 °C, 5 % CO2, and 90 % humidity. […] For antagonism studies, test peptides were pre-mixed with 10 nM IGF-1. After 15 min incubation at 37 °C in humidified atmosphere with 5 % CO2, the cells were fixed with 5 % paraformaldehyde for 20 min at room temperature, washed twice with PBS (pH 7.4) and blocked with 2 % BSA in PBS for 1 h. The plate was washed three times, filled with anti-phospho-IR/IGF1R (Tyr1158) antibody (Millipore) and incubated for 3 h at room temperature, after which the plate was washed four times and filled with goat anti-rabbit secondary antibody (#A16110, ThermoFisher). Following 30 min incubation and another four washes, 0.1 mL of TMB One Solution substrate (#00-2023; Invitrogen) was added to each well. Color development was stopped 10 min later by adding 0.05 mL 1 M HCl.

human IGF1R [2] = target: T3, human IGF1R (Homo sapiens, UniProt P08069); test: cell-based; design: expressed in transfected cells; host or cells: HEK293 cells overexpressing human IGF-1R
Experimental: as §2
Target sequence in this assay (P08069 741-1367): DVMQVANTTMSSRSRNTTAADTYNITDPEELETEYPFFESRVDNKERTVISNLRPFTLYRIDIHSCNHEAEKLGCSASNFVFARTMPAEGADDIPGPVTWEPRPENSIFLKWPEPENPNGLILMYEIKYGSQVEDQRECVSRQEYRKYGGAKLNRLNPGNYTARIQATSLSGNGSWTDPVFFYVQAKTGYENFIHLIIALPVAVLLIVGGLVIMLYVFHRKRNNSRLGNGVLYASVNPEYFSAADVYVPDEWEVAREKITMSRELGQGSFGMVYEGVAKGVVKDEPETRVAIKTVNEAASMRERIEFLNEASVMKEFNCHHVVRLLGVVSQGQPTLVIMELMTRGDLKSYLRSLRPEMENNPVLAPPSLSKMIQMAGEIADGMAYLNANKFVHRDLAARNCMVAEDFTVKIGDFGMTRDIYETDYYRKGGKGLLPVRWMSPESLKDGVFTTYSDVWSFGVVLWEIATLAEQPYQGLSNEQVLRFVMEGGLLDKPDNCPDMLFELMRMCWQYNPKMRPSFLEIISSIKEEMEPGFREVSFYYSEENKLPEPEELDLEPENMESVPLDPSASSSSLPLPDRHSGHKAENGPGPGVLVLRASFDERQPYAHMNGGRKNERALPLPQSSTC
Target sequence in this assay (P08069 31-736): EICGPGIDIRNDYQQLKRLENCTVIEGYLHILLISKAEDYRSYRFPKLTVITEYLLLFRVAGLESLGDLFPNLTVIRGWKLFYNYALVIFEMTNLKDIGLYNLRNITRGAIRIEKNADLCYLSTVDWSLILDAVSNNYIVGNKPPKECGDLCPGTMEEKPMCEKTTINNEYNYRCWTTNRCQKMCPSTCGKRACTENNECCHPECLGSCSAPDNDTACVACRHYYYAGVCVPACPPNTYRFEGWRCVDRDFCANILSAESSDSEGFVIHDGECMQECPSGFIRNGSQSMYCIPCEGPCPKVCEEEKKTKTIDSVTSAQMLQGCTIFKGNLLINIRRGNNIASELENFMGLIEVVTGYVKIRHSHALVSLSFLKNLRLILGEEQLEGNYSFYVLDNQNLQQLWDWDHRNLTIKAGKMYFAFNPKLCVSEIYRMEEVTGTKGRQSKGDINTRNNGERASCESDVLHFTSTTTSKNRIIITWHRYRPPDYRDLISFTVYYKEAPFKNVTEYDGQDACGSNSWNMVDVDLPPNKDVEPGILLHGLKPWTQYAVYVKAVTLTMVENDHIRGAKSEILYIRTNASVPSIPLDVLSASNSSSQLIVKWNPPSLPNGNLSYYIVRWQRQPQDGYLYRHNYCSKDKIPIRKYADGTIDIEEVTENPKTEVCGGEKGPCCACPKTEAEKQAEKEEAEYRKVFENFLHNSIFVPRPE

human IR-A [3] = target: T2, human IR-A; test: Whole-cell binding competition assay with 125I-insulin on IM-9 lymphoblasts; design: human IM-9 lymphoblasts, that express IR-A exclusively; host or cells: human IM-9 lymphoblasts (whole cells)
Experimental: as §1

human IGF1R [4] = target: T3, human IGF1R; test: Whole-cell binding competition assay with 125I-IGF-1 on R+ fibroblasts; design: expressed in transfected cells; host or cells: murine embryonic fibroblasts from IGF1R knockout mice, stably transfected with IGF1R (R+ cells); conditions: competition with 125I-IGF-1, R+ cells; mean ± S.D. (n), n ≥ 3; measurement series #; SD
Experimental: as §1
Target sequence in this assay (P08069 31-736): as above
Target sequence in this assay (P08069 741-1367): as the sequence (P08069 741-1367) above

IR-B = test: Insulin/IGF signaling via IR-B in R-/IR-B cells (western blot); format: cell-based, human; conditions: 0.1-500 nM, 30 min
Experimental: For receptor phosphorylation and downstream signaling experiments, R^−/IR-A, R^−/IR-B and R^+ cells (described in 2.4) were used to explore signaling properties of ligands via specific receptors. Cells were seeded into 24-well plates (10^5 cells per well) in 300 μl of culture medium (described above) and grown overnight. Afterwards, cells were washed twice with PBS and starved in serum-free culture medium for 4 h. After the starvation, cells were washed with pure DMEM medium and incubated with ligand diluted in pure DMEM medium (0, 0.1, 1, 10, 100, 250 and 500 nM) in 37 °C for 30 min. For co-incubation of a VILP with 10 nM insulin/IGF-1, increasing concentrations of the VILP were pre-mixed with insulin or IGF-1 prior stimulation of cells. The reaction was terminated by washing the cells with ice-cold PBS (HyClone) followed by snap freezing in liquid nitrogene. […] Protein concentration in each sample was evaluated using BCA Assay (Thermo Fisher Scientific). Samples were further diluted using sample buffer for SDS-PAGE (final concentration 62.5 mM Tris, 2 % SDS (w/v), 10 % glycerol (v/v). 0.01 % bromphenol blue (w/v), 0.1 M DTT (w/v), pH 6.8 (HCl)) and routinely analyzed using SDS-PAGE and immunoblotting. […] Western blots were quantified using Image Lab 6.0.1 (Bio-Rad). […]

T2 sequence (P06213 763-1382): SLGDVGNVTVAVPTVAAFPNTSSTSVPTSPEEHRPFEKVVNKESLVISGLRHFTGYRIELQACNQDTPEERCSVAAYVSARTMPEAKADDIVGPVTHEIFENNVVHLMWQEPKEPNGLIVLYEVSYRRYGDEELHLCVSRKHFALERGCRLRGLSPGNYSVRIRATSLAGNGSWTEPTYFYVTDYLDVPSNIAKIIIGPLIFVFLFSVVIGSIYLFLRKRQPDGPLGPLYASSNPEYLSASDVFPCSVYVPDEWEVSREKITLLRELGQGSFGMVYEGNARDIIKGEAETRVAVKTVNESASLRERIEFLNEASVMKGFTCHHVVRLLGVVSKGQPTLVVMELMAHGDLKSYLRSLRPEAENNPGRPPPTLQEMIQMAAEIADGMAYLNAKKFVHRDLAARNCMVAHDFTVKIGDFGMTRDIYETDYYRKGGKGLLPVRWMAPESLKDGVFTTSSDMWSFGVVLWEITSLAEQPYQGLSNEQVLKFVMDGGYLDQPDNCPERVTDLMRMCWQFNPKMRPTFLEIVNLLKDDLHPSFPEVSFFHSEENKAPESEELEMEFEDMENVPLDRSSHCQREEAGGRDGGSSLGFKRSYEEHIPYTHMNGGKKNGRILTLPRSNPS
T2 sequence (P06213 other isoform, or with tags, fused parts or gaps): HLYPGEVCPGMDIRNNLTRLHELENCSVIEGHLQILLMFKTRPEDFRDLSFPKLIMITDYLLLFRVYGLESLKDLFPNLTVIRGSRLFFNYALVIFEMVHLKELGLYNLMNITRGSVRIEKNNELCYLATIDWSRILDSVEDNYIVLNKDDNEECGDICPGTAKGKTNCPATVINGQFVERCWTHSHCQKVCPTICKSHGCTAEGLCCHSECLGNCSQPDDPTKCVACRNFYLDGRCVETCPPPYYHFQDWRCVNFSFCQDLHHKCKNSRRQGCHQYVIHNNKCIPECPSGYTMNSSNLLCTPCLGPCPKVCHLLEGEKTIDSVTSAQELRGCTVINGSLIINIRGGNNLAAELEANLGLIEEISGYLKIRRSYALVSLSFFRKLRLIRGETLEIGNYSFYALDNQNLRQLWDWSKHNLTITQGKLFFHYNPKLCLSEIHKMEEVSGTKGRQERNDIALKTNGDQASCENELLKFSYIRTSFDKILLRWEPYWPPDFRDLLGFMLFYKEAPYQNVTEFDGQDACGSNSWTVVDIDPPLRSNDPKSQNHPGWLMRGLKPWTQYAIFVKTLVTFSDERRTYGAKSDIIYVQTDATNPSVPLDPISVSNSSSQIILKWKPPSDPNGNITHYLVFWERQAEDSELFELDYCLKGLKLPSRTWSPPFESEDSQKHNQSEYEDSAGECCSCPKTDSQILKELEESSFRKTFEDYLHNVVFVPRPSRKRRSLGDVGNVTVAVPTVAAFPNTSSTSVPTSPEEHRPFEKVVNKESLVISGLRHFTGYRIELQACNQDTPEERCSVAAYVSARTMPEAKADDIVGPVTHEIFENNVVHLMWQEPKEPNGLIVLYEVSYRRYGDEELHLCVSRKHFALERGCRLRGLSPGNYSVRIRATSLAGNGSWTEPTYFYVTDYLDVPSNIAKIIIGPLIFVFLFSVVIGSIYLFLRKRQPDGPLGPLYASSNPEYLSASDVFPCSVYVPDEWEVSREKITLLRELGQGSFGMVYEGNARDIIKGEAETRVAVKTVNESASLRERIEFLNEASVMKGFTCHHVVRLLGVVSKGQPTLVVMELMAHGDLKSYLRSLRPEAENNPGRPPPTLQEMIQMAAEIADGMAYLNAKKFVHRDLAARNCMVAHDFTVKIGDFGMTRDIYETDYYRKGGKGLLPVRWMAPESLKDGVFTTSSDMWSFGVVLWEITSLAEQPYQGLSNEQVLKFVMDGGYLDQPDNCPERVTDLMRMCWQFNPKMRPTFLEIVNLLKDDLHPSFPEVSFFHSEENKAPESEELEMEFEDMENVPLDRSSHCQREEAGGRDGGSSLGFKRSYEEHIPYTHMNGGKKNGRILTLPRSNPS
T1 sequence (P06213 28-758 limits assumed): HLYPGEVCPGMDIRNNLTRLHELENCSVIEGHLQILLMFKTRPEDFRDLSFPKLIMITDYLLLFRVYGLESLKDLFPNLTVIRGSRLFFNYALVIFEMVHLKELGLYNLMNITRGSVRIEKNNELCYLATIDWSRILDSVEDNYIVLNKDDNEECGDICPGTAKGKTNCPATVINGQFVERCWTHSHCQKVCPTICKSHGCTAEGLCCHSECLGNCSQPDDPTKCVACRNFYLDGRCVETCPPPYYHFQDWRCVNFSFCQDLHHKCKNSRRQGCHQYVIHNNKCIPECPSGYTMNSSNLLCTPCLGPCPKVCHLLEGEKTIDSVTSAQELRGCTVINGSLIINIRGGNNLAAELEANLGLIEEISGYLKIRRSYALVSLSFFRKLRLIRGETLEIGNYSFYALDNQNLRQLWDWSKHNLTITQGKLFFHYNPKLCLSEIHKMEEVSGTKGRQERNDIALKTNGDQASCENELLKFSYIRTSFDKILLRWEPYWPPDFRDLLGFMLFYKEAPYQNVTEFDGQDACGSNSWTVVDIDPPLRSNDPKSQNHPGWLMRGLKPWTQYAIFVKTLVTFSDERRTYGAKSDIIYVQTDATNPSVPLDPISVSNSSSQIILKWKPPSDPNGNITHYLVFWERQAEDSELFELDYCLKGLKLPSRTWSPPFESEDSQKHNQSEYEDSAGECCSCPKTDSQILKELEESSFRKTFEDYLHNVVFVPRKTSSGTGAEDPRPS
T1 sequence (P06213 763-1382 limits assumed): as the sequence (P06213 763-1382) above

## Human IGF-1: human insulin like growth factor-1, supplied by Merck [reference compound]
IGF1R gene expression
  decrease of IGF-1R gene expression: neither dcMFRV-VILP nor IGF-1 demonstrated a similar effect
R+ cells
  increase in cell proliferation in cells transfected with empty vector: 2.2 fold

## Human insulin: human insulin, supplied by Merck; Humulin (Eli Lilly) in the insulin tolerance test [reference compound]
C57BL/6 J mice; 6 nmol/kg (1x) i.p., male C57BL/6 J mice, 6 h starved
  maximum decrease in blood glucose levels: ~60%

## I: ILAQTLCGSELVDALELVCGEYGGIYRPPK / II: KIVDVCCTTKGCNYMDLKQYCN (disulfide I:7-II:7, I:19-II:21, II:6-II:12) [dcLCDV-Sa]
Human IR-B
  Kd: 0.994 ± 0.055 µM
Human IR-A [1]
  EC50: 0.198 µM
Human IGF1R [2]
  EC50: 0.282 µM
Human IR-A [3]; competition with 125I-insulin, IM-9 cells, mean ± S.D. (n), n ≥ 3 binding curves each in duplicate, measurement series #, SD
  Kd: 0.487 ± 0.287 µM
Human IGF1R [4]
  Kd: 0.639 ± 0.453 µM

## I: VLTDKLCGKDLVDALLLVCGEKGVYSPKMG / II: GIADVCCTSANGCDLNFLEKFCKT (disulfide I:7-II:7, I:19-II:22, II:6-II:13) [dcMFRV]
IR-B
  maximum response of IR-B autophosphorylation compared to 10 nM insulin: comparable maximum response
IGF1R gene expression
  decrease of IGF-1R gene expression: neither dcMFRV-VILP nor IGF-1 demonstrated a similar effect
C57BL/6 J mice; 60 nmol/kg (10x) i.p., dcMFRV-VILP
  glucose-lowering effect: comparable effect to scMFRV-VILP (1x)
Human IR-A [3]; ratio of Kd values
  affinity on IR-A, fold stronger than IGF-1: 1.5 fold
  fold difference in IR-A affinity, dcMFRV-VILP higher than the sc form: about 3 fold

Reference: publication PMC10831276, “A viral insulin-like peptide inhibits IGF-1 receptor phosphorylation and regulates IGF1R gene expression” (Molecular Metabolism, 2024)
